Among the test systems are SF-295 CNS; HL-60(TB) leukemia; HS 578T breast; BT-549 breast; OVCAR-3 ovarian; NCI-H226 lung; EKVX NSCLC; MCF7 breast; K-562 leukemia; UACC-62 melanoma; U251 CNS; SN12C renal; NCI-H23 lung; 786-0 renal; HCT-15 colon.
Holding throughout (assay): growth of human tumour cells (NCI), 48 h

SMILES strings stand for the structures.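 Results reflect a 48-hour exposure of cells in 96-well plates to compound at five concentrations. Definition used: TGI = concentration required for complete inhibition of growth.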

For `COc1c(-c2ccc(F)cc2)oc2c(CC(=O)O)cccc2c1=O`, the TGI in the test on SF-295 CNS, with HL-60(TB) leukemia, in the test with HS 578T breast, in the test on BT-549 breast, in the test on OVCAR-3 ovarian and in the test with NCI-H226 lung was over 100 µM in each case. Besides, the TGI in the test on EKVX NSCLC, in the test with MCF7 breast, in the test on K-562 leukemia, in the test with UACC-62 melanoma, with U251 CNS and in the test on SN12C renal was over 100 µM each time. Also, the TGI in the test on NCI-H23 lung and with 786-0 renal was over 100 µM in each case.
`CCOC(=O)C(CCSC)(CCSC)C(=O)OCC`: the TGI in the test with SF-295 CNS, in the test on HS 578T breast, in the test with HCT-15 colon, in the test on BT-549 breast, with OVCAR-3 ovarian and in the test on NCI-H226 lung was over 100 µM in each case. Also, the TGI was over 100 µM with EKVX NSCLC; over 100 µM in the test with MCF7 breast; over 100 µM with K-562 leukemia; 49.1 µM in the test with UACC-62 melanoma; over 100 µM in the test on U251 CNS; over 100 µM with SN12C renal. In addition, the TGI with NCI-H23 lung and in the test with 786-0 renal was over 100 µM in each case.
Take `CC(=O)O[C@H]1C(=O)[C@@]2(C)[C@H]([C@H](OC(=O)c3ccccc3)[C@]3(O)C[C@H](OC(=O)[C@H](O)[C@@H](NC(=O)OC(C)(C)C)c4ccco4)C(C)=C1C3(C)C)[C@]1(OC(C)=O)CO[C@@H]1C[C@@H]2O`: the TGI in the test with SF-295 CNS is under 0.005 µM; with HL-60(TB) leukemia, 0.0241 µM; in the test on HS 578T breast, under 0.005 µM; with HCT-15 colon, 12.3 µM; in the test with BT-549 breast, under 0.005 µM; with OVCAR-3 ovarian it was 0.0471 µM. The TGI with EKVX NSCLC was over 50 µM; in the test with MCF7 breast, 0.247 µM; with K-562 leukemia it was 13.4 µM; in the test on UACC-62 melanoma, over 33.4 µM; with U251 CNS it was over 16.1 µM; with SN12C renal it was 36.3 µM. Moreover, the results for the TGI in the test with NCI-H23 lung and in the test on 786-0 renal were over 40.9 µM and over 50 µM, respectively.
As for `O=C1NC(NNc2ccccc2)=N/C1=C\c1ccco1`, the TGI in the test with SF-295 CNS is over 100 µM; in the test on HL-60(TB) leukemia, 90.3 µM; in the test on HS 578T breast, 74.5 µM; in the test with HCT-15 colon, 33 µM; in the test with BT-549 breast, 50.7 µM; with OVCAR-3 ovarian, 38.1 µM. Also, the TGI with EKVX NSCLC was found to be 46.7 µM; in the test on MCF7 breast it was 34 µM; in the test on UACC-62 melanoma, 17.3 µM; in the test on U251 CNS, 39.8 µM; with SN12C renal, 49.9 µM; with NCI-H23 lung, 45.9 µM. In the test on 786-0 renal, this compound registered a TGI of 40.2 µM.
With `CC(C)C1CCC(=O)CC1CCCCC1CC(=O)CC1O[Si](C)(C)C(C)(C)C` (configuration not stated), the TGI with SF-295 CNS was 25.5 µM; in the test on HS 578T breast it was 9.89 µM; in the test with HCT-15 colon, 21.4 µM; with BT-549 breast, 13.3 µM; in the test on OVCAR-3 ovarian, over 47.5 µM; in the test with NCI-H226 lung, 15.5 µM. Also, the TGI in the test with EKVX NSCLC is 36.1 µM; in the test on MCF7 breast, 27.2 µM; in the test with K-562 leukemia, over 34.9 µM; in the test on UACC-62 melanoma, 17.1 µM; in the test on U251 CNS, 5.84 µM; in the test on SN12C renal, 22.3 µM. Also, the TGI turned out to be 33.7 µM with NCI-H23 lung and 17.1 µM with 786-0 renal.
For `CC(NNC(=S)N1CCCC1)c1cccnn1` (configuration not stated), the TGI in the test on SF-295 CNS was over 28.2 µM; in the test with HL-60(TB) leukemia, over 100 µM; in the test on HS 578T breast it was over 100 µM; with HCT-15 colon, over 100 µM; in the test with BT-549 breast it was over 56.1 µM; in the test on OVCAR-3 ovarian it was over 100 µM. The TGI is over 26.5 µM in the test with NCI-H226 lung; 5.33 µM in the test with MCF7 breast; over 100 µM with K-562 leukemia; 7.45 µM in the test with UACC-62 melanoma; over 100 µM in the test on U251 CNS; over 100 µM in the test with SN12C renal. In addition, the TGI in the test with NCI-H23 lung and with 786-0 renal was over 100 µM in each case.
As for `CCOC(=O)NC(C(F)(F)F)(C(F)(F)F)P(=O)(OCC)OCC`, the TGI in the test on SF-295 CNS, in the test on HL-60(TB) leukemia, in the test on HS 578T breast, with HCT-15 colon, in the test with BT-549 breast and in the test with OVCAR-3 ovarian was over 100 µM throughout. The TGI is over 100 µM with NCI-H226 lung; over 100 µM in the test with MCF7 breast; over 100 µM in the test with K-562 leukemia; over 100 µM with UACC-62 melanoma; 79.5 µM with U251 CNS; over 100 µM with SN12C renal. For the same compound, the TGI in the test with NCI-H23 lung and in the test on 786-0 renal was over 100 µM each time.
On to `O=C1Nc2n[nH]c(=S)n2NC12c1ccccc1-c1ccccc12`, for which the TGI with SF-295 CNS, with HL-60(TB) leukemia, in the test with HS 578T breast, in the test on HCT-15 colon, in the test on BT-549 breast and in the test with OVCAR-3 ovarian was over 100 µM throughout. For the same compound, the TGI in the test on NCI-H226 lung was over 100 µM; in the test on EKVX NSCLC, over 100 µM; in the test on MCF7 breast, over 100 µM; in the test with UACC-62 melanoma, 68.1 µM; in the test with U251 CNS, over 100 µM; with SN12C renal, over 100 µM. Further, the TGI in the test on NCI-H23 lung and with 786-0 renal was over 100 µM throughout.
Take `COC(=O)N1C2C(C[C@@]1(C)C(=O)OC)c1ccccc1N2S(=O)(=O)c1ccccc1` (some centres not stated): the TGI in the test with SF-295 CNS, with HL-60(TB) leukemia, with HS 578T breast, in the test with BT-549 breast, with OVCAR-3 ovarian and with NCI-H226 lung was over 100 µM throughout. In addition, the TGI in the test on EKVX NSCLC, in the test on MCF7 breast, in the test on K-562 leukemia, in the test on UACC-62 melanoma, with NCI-H23 lung and in the test on 786-0 renal was over 100 µM in each case.
As for `CC1=C(C(=O)NNC(=O)c2ccccc2O)CC(C(=O)NNC(=O)c2ccccc2O)=C(C)N1`, the TGI in the test with SF-295 CNS was over 100 µM; in the test with HS 578T breast, over 100 µM; in the test with HCT-15 colon, over 100 µM; in the test with BT-549 breast, over 100 µM; in the test with OVCAR-3 ovarian, over 23.4 µM; in the test with NCI-H226 lung, over 41.7 µM. The TGI in the test on EKVX NSCLC is over 72.7 µM; in the test on MCF7 breast it was over 48.5 µM; with K-562 leukemia, over 100 µM; in the test on UACC-62 melanoma, over 100 µM; with U251 CNS, over 100 µM; in the test on SN12C renal, over 100 µM. The results for the TGI with NCI-H23 lung and with 786-0 renal were over 100 µM and over 61.7 µM, respectively.

For the origin of these results see PubChem BioAssay (NCI).
